Results as given in patent publication US9375438B2, “Inhibitors of NCCa-ATP channels for therapy” (University of Maryland, Baltimore, priority 2007, dated 2016).

How the values were obtained:
Assay type in all cases: in vivo, rat
[1] = system: rats with hemi-cervical spinal cord contusion (SCI); assay: SCI model: extravasated blood in cord (tissue blood)
Experimental: (§1) SCI injury model. This study was performed in accordance with the guidelines of the Institutional Animal Care and Use Committee. Adult female Long-Evans rats (275-350 gm) were anesthetized (Ketamine, 60 mg/kg plus Xylazine, 7.5 mg/kg, i.p.). The dura at C4-5 was exposed via a left hemilaminectomy. A hemi-cervical spinal cord contusion was created using a blunt force impactor (1.3-mm impactor head driven by a 10 gm weight dropped vertically 25 mm) (Soblosky et al., 2001; Gensel et al., 2006). After SCI, animals were given 10 ml of glucose-free normal saline s.q. Rectal temperature was maintained at ˜37° C. using a servo-controlled warming blanket.
(§2) For in vivo gene suppression of SUR1, we used oligodeoxynucleotides that were phosphorothioated at 4 distal bonds to protect against endogenous nucleases (35).
Tissue blood. Rats were sacrificed at various times after SCI (n=5-11 rats/group), were perfused with heparinized saline to remove intravascular blood, and 5-mm segments of cord encompassing the lesion were homogenized and processed as described (Choudhri et al., 1997).

[2] = system: rats with hemi-cervical spinal cord contusion (SCI); assay: SCI model: vimentin immunolabeling of capillaries; details: region of injury; glibenclamide 200 ng/h s.q. vs controls
Experimental: as §1, with “blanket. Blood gases and serum glucose 10-15 min post-SCI were: pO2, 95±6 mm Hg; pCO2, 46±3 mm Hg; pH, 7.33±0.01; glucose 258±17 mg/dl in controls and pO2, 96±7 mm Hg; pCO2, 45±2 mm Hg; pH, 7.37±0.01; glucose 242±14 mg/dl in glibenclamide-treated animals.” for “blanket.”
Drug delivery. […] During the course of the project, slightly different formulations of drug were used, with the best results obtained using stock solutions made by placing 50 mg (or 25 mg) of drug into 10 ml DMSO, and infusion solutions made by placing 400 μl (or 800 μl) stock into 4.6 ml (or 4.2 ml) unbuffered saline (0.9% NaCl) and adjusting the pH to ˜8.5 using 0.1 N NaOH.
Immunohistochemistry. […] Quantitative immunofluorescence was performed as described (Gerzanich et al., 2003).

[3] = system: rats with hemi-cervical spinal cord contusion (SCI); assay: SCI model: neurobehavioral assessment (inclined plane, paw placement, rearing)
Experimental: as §1, §2
Neurobehavioral Assessment. All measurements were performed by blinded evaluators. Performance on the inclined plane was evaluated as described (Rivlin and Tator, 1977). To assess paw placement and vertical exploration (rearing) (Nikulina et al., 2004) animals were videotaped while in a translucent cylinder (19×20 cm). Rearing was quantified as the number of seconds spent with both front paws elevated above shoulder-height during a 3-min period of observation.

[4] = Effect of glibenclamide doses on serum glucose; details: uninjured rats and rats with stroke and SCI; dose1-dose4
[5] = 1, 3 and 7 d post-SCI, glibenclamide vs vehicle

COc1ccc(Cl)cc1C(=O)NCCc1ccc(S(=O)(=O)NC(=O)NC2CCCCC2)cc1 [glibenclamide]
hemorrhage in cords (visual) ([1]; 24 h post-SCI, glibenclamide 200 ng/h s.q. vs vehicle): visibly less hemorrhage | extravasated blood in tissue homogenates ([1]; during the 24 h after injury, glibenclamide 200 ng/h s.q. vs vehicle): little increase | PHN ([1]; following SCI (summary)): significantly reduced | appearance of vimentin(+) capillaries [2]: elongated and appeared more normal | performance on inclined plane [3, 5]: significantly better performance | vertical exploratory behavior (rearing), performance [3, 5]: significantly better performance | vertical exploratory behavior (rearing) ([3]; 1 d post-SCI, additional groups, 14-15 rats/group, 3-min observation): 42 ± 7 s | ipsilateral paw placement ([3]; 1 d post-SCI, glibenclamide vs vehicle): significantly better performance | mobility / exploratory behavior ([3]; post-SCI, vs vehicle-treated rats): typically ambulatory and often exhibited proficient exploratory behavior | effect of proposed doses on serum glucose [4]: only the highest are hypoglycemogenic, but only mildly so
